From a melting point compilation (Tetko et al.; mined from patent text by program, amines drawn as free bases though some values may be those of a salt)

| melting point [°C] | SMILES |
| --- | --- |
| 162 to 163 | CC(=O)Nc1ncc(SCC(=O)OC(C)(C)C)s1 |
| 108 to 110 | COc1ccc(C(=O)OC2C=C(C)C(=O)CC(C)(C)C2O)cc1 (stereo not given) |
| 94 to 95 | Cn1ncc(N(CCCO)Cc2ccccc2)c(Cl)c1=O |
| 193 to 194 | Nc1nc(-c2ccc(NC(=O)CN(Cc3ccccc3)S(=O)(=O)N3CCOCC3)cc2)cs1 |
| 152 to 154 | Cc1ccc(-c2c(CNC(=O)OC(C)(C)C)n(CC(C)C)c(=O)c3ccc(/C=C/C(N)=O)cc23)cc1 |
| 137 to 139 | C=CCSC1=C(C(=O)OCc2ccc([N+](=O)[O-])cc2)N2C(=O)[C@@H]([C@H](C)O)[C@H]2C1 |
| 119 | COc1c(C(=O)OCc2ccccc2)nc(-c2ccc(Cl)c(OC)c2F)c(F)c1N |
| 141 to 143 | CCCNC(=O)C1Cc2[nH]c3ccc(OC)cc3c2C1 (stereo not given) |
| 158 to 160 | COCCc1nc2c(N)nc3cc(-c4cccnc4)ccc3c2n1CC(C)(C)O |
| 140 to 142 | NS(=O)(=O)c1ncccc1C(=O)OC1COC1 |
| 193 | CCOC(=O)c1cc(=O)c2c(ccc3nc(C(=O)OC)cc(Cl)c32)o1 |
| 141 to 151 | CCOC(=O)Cn1cccc(O)c1=O |
| 26.7 to 33.1 | CCCCNC(=O)CCc1ccccc1 |
| 64 to 65 | CCOC(=O)C(=O)N(c1ccccc1N)C(C)(C)C |

Second part, the molecule before the results:

| SMILES | melting point [°C] |
| --- | --- |
| COCc1c[nH]c(-c2ccc(OCc3ccccc3)cc2)n1 | 146 to 148 |
| O=C1N[C@H](Cc2ccc(C(F)(F)F)cc2)[C@H](c2ccc(Oc3ccccc3)cc2)O1 (racemic) | 110 to 111 |
| O=[N+]([O-])c1cc(O)c(Cl)cc1F | 106 to 107 |
| Oc1ccc(CCNc2ncnc3c(F)ccc(F)c23)cc1 | 221 to 222 |
| N#Cc1cc(F)c(-n2nc3ccc(Cl)cn3c2=O)cc1O | > 260 |
| C=Cc1cc(O)cc2nc(-c3ccc(O)cc3)oc12 | 249 to 250 |
| COc1ccccc1-n1c(CCl)nc2ccccc2c1=O | 193 to 194 |
| CCOCc1nc2c(c(C)c(C)n3nnnc23)n1CCNC(=O)C(C)C | 179 to 181 |
| NC(=O)CNC(=O)c1cccc(-c2cccc3cc(COc4cc(Cl)cc(Cl)c4)sc23)c1 | 164 to 165 |
| CC(=O)c1cccc(-c2cncc(OC3SCC(O)C(O)C3O)c2)c1 (stereo not given) | 159 to 163 |
| CCCCCCCCCCCCc1ccc(S(=O)(=O)Cl)cc1 | 33 to 35 |
| C1=C(CCCc2ccccc2)CCN(Cc2nc3ccccc3[nH]2)C1 | 131 to 132 |
| c1ccc(CC[C@H]2CN(Cc3ccccc3)CCN2Cc2ccccc2)cc1 | 86 to 90 |
| COc1ccccc1N1CCN(CCCNC(=O)c2cccc3c(=O)c(C)c(-c4cccc([N+](=O)[O-])c4)oc23)CC1 | 135 to 137 |
| N#CN=CNCc1cc(Cl)nc(Cl)c1 | 160 |
| CC(C)n1nc(-c2sc(C(=O)NCc3ccccn3)nc2-c2cccc(F)c2)ccc1=O | 188 to 190 |
| COc1cc(CCBr)cc2c1OCO2 | 78 to 79 |
| COc1ccc2c(c1)C(N)=NCC2 | 114 to 118 |
| CN(C)C1(c2ccccc2)CCC(CNC(=O)N2CCC(c3c[nH]c4ccc(F)cc34)CC2)CC1 (stereo not given) | 95 to 98 |
| CC1c2cc(C(C)(C)C)cc(C(C)(C)C)c2O[Si](C)(C)Oc2c1cc(C(C)(C)C)cc2C(C)(C)C | 171 to 177 |
| Cc1oc(-c2ccccc2)nc1COc1ccc(Cn2cc(CC(=O)O)c(-c3cccs3)n2)cc1 | 98 to 99 |
| Cc1cc(F)nc(-c2ccc(F)cc2)c1 | 49 |
| CCCc1c(OCC(O)CSc2ccc(C(=O)CCC(=O)O)c(O)c2)ccc(C(C)=O)c1O (stereo not given) | 150 |
| c1cnc2ccc(Cn3nnc4ccc(-c5ccc6c(c5)OCO6)nc43)cc2c1 | 179 to 181 |
| CC(c1oc2ccccc2c(=O)c1-c1cc(F)cc(F)c1)n1cnc2c(N)ncnc21 (stereo not given) | 267 to 269 |
| COc1ccc(-c2noc3ccsc23)cc1 | 93 to 94 |
